≈ marks a conversion by molar mass, not a printed value.
What was measured:
[1] = molecular target: Phosphatidylinositol 4,5-bisphosphate 3-kinase catalytic subunit alpha isoform (Homo sapiens, UniProt P42336); experiment: Inhibition of N-terminus poly-His tagged human PI3Kalpha expressed in baculovirus infected insect sf9 cells coexpressing p85alpha using PI(4,5)P2 as substrate preincubated with compound for 15 mins measured after 10 mins by HTRF assay
[2] = molecular target: T1, Phosphatidylinositol 4,5-bisphosphate 3-kinase catalytic subunit delta isoform (Homo sapiens, UniProt O00329); experiment: Inhibition of poly-His tagged human PI3Kdelta expressed in baculovirus infected insect sf9 cells coexpressing p85alpha using PI(4,5)P2 as substrate preincubated with compound for 15 mins measured after 10 mins by HTRF assay
T1 sequence (O00329 whole entry): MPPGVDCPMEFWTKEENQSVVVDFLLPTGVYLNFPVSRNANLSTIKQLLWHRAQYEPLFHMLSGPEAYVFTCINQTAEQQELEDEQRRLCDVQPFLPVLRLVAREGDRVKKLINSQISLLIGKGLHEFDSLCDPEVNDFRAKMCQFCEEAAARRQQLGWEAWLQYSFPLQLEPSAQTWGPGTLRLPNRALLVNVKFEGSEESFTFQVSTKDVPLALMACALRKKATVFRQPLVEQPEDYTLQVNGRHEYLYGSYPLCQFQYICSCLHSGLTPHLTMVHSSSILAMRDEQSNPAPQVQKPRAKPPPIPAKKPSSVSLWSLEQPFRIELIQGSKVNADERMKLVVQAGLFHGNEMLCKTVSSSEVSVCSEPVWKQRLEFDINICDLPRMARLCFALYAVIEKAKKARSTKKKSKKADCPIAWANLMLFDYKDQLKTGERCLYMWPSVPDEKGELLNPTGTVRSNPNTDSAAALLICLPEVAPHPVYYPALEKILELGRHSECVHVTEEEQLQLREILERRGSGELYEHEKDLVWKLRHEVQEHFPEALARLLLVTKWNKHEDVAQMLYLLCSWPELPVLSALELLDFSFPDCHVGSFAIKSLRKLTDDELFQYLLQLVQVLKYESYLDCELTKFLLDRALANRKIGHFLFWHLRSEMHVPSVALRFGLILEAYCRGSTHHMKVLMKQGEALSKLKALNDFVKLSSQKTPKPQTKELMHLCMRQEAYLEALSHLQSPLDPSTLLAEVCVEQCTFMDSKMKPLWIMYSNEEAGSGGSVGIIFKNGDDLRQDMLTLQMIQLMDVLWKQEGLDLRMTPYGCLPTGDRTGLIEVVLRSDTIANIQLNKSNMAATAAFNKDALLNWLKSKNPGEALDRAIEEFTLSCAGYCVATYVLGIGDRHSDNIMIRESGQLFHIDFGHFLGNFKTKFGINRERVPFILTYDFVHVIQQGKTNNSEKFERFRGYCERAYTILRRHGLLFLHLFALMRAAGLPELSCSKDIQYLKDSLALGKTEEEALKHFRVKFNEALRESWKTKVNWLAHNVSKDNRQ

[3] = molecular target: T2, Phosphatidylinositol 4,5-bisphosphate 3-kinase catalytic subunit beta isoform (Homo sapiens, UniProt P42338); experiment: Inhibition of N-terminus poly-His tagged human PI3Kbeta expressed in baculovirus infected insect […] cells coexpressing p85alpha using PI(4,5)P2 as substrate preincubated with compound for 15 mins measured after 10 mins by HTRF assay
[4] = molecular target: Phosphatidylinositol 4,5-bisphosphate 3-kinase catalytic subunit gamma isoform (Homo sapiens, UniProt P48736); experiment: Inhibition of N-terminus poly-His tagged human PI3Kgamma expressed in baculovirus infected insect sf9 cells using PI(4,5)P2 as substrate preincubated with compound for 15 mins measured after 10 mins by HTRF assay
[5] = molecular target: Serine/threonine-protein kinase mTOR (Homo sapiens, UniProt P42345); experiment: Inhibition of mTOR
[6] = molecular target: T2, Phosphatidylinositol 4,5-bisphosphate 3-kinase catalytic subunit beta isoform; experiment: Inhibition of human PI3Kbeta-mediated Akt phosphorylation at Ser473 residue expressed in PTEN-deficient human PC3 cells by chemiluminescence assay; format: cell-based, PC-3
[7] = Drug metabolism in mouse liver microsomes; format: ADME, Microsome; details: read-out: Drug metabolism
[8] = Drug metabolism in human liver microsomes; format: ADME, Microsome; details: read-out: Drug metabolism
[9] = Apparent permeability of the compound across human Caco2 cells; format: ADME, cell-based; details: Caco-2
Cytochrome P450 3A4 = Cytochrome P450 3A4 (Homo sapiens, UniProt P08684); experiment: Inhibition of human recombinant CPY3A4
[10] = Thermodynamic solubility of the compound in phosphate buffer at pH 7.4 after 16 hrs by HPLC analysis; format: physicochemical; details: read-out: Therm_solubility

Chain of Phosphatidylinositol 4,5-bisphosphate 3-kinase catalytic subunit gamma isoform (P48736 whole entry, canonical isoform): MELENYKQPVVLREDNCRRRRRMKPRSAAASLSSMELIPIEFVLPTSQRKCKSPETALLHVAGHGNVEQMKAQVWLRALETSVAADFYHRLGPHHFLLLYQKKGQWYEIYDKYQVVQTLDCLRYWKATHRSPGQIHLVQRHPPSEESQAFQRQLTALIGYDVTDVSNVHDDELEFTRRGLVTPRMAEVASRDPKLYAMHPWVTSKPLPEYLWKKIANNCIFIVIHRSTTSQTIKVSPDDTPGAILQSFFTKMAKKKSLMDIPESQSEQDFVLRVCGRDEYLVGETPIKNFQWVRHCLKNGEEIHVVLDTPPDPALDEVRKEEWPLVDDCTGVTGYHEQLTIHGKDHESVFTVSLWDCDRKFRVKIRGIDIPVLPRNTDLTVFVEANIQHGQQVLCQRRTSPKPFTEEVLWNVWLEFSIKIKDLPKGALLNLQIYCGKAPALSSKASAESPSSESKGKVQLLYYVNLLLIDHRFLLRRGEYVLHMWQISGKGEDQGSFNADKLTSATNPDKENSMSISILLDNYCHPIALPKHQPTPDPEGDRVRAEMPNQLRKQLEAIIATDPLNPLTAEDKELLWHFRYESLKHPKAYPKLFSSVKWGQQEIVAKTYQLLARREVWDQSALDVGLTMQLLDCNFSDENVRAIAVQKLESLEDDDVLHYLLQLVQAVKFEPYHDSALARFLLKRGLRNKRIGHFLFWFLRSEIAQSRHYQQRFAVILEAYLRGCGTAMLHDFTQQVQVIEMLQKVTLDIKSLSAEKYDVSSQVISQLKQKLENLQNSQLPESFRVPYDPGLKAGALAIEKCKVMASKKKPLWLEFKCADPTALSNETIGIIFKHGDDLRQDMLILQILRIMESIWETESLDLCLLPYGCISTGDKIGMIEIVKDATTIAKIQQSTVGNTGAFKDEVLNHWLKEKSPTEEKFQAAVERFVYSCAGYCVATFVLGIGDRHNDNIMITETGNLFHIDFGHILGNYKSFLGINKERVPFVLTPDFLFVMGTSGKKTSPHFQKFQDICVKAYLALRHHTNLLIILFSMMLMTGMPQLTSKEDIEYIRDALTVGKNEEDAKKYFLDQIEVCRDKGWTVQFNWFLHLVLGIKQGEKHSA
Chain of Phosphatidylinositol 4,5-bisphosphate 3-kinase catalytic subunit alpha isoform (P42336 whole entry, canonical isoform): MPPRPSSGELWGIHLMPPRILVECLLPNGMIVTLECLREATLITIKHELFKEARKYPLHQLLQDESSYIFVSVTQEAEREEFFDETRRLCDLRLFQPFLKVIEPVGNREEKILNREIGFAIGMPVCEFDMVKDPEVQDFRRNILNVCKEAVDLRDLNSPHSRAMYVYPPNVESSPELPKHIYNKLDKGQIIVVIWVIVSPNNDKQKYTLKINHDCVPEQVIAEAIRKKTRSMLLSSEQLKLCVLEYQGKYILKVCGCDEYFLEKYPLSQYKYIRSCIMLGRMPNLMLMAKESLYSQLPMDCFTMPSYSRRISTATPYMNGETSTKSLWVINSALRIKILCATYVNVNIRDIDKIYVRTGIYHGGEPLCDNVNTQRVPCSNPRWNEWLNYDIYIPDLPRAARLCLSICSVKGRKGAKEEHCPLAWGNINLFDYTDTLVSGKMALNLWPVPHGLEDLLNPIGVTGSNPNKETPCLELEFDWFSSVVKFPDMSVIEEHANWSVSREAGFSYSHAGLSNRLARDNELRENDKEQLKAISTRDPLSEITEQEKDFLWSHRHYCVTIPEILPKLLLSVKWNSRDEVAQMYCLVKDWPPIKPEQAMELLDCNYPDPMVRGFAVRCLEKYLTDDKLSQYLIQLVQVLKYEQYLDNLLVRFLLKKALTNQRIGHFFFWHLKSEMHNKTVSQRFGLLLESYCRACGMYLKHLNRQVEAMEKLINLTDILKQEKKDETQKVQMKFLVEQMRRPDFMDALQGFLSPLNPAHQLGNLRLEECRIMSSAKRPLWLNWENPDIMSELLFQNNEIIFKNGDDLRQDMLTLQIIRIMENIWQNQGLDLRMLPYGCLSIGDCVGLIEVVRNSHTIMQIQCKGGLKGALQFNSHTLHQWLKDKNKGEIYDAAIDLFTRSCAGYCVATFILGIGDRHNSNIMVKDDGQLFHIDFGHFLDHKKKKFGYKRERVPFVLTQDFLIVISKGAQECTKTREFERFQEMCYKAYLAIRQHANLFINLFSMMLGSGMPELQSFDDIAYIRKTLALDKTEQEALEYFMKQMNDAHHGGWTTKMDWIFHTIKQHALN
T2 sequence (P42338 whole entry, canonical isoform): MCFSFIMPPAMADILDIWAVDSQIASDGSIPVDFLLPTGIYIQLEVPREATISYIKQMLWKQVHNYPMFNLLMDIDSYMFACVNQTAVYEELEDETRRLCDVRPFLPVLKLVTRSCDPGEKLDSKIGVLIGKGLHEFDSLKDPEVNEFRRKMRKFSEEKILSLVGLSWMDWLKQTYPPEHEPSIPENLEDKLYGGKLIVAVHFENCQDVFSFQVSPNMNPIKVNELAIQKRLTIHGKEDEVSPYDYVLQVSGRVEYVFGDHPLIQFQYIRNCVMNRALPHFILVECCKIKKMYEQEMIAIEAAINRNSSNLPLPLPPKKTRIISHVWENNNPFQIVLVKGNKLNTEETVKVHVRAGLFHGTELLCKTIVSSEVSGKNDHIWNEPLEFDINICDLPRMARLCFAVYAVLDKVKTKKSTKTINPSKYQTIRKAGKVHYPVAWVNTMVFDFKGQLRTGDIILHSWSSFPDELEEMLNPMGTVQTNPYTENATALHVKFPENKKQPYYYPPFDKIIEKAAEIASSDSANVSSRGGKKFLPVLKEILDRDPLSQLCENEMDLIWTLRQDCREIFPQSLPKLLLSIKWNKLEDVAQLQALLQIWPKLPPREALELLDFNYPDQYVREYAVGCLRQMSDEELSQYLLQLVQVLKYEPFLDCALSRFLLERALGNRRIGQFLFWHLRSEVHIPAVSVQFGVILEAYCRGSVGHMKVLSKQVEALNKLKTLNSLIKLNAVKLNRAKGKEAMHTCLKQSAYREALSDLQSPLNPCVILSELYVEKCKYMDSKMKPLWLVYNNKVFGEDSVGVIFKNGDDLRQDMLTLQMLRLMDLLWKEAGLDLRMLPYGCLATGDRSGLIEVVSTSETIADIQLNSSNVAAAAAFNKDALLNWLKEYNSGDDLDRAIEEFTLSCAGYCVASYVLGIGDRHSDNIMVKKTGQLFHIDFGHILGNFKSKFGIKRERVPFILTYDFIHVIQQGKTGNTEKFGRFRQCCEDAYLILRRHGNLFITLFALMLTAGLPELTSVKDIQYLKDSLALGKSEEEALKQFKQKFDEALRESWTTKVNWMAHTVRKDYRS
Chain of Cytochrome P450 3A4 (P08684 whole entry): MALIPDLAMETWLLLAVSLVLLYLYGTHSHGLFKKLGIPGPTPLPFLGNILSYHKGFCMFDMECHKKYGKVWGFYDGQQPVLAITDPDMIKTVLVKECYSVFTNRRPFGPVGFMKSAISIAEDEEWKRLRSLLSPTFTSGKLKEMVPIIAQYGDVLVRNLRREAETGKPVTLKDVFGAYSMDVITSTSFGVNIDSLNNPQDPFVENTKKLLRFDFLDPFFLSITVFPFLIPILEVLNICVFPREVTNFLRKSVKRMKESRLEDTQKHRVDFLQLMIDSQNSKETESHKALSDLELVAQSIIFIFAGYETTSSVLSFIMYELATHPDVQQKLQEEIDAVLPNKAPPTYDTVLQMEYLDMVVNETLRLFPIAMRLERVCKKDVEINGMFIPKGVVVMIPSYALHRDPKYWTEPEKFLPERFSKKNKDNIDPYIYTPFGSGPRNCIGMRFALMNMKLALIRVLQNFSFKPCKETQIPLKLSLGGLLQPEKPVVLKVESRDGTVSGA

IC50 [1] [nM]	IC50 [2] [nM]	IC50 [3] [nM]	IC50 [4] [nM]	IC50 [5] [nM]	IC50 [6] [nM]	metabolised [7] [%]	metabolised [8] [%]	Papp [9] [×10⁻⁶ cm/s]	IC50 (Cytochrome P450 3A4) [nM]	solubility thermodynamic at 16 h [10] [µM]	Structure (SMILES)
7800	3410	3410	> 10000	> 10000	–	–	–	–	–	–	Cn1c(Cc2nc(N3CCOCC3)cc(=O)[nH]2)nc2ccc(-c3ccccc3)cc21
> 10000	2870	158	> 10000	> 10000	665	–	–	–	–	–	O=c1cc(N2CCOCC2)nc(Cc2nc3ccccc3[nH]2)[nH]1
> 10000	2850	386	> 10000	> 10000	961	–	–	–	–	–	O=c1cc(N2CCOCC2)nc(Cc2nc3ccc(C(F)(F)F)cc3[nH]2)[nH]1
> 10000	2560	373	> 10000	> 10000	88	–	–	–	–	–	O=c1cc(N2CCOCC2)nc(Cc2nc3cccc(F)c3o2)[nH]1
314	274	57	> 10000	> 10000	26	40	41	11.4	> 40000	–	Cn1c(Cc2nc(N3CCOCC3)cc(=O)[nH]2)nc2c(-c3ccccc3)cccc21
9770	1140	526	> 10000	> 10000	143	–	–	–	–	–	Cc1ccc2nc(Cc3nc(N4CCOCC4)cc(=O)[nH]3)oc2c1
2130	118	42	> 10000	> 10000	–	–	–	–	–	–	O=C(Cc1nc(N2CCOCC2)cc(=O)[nH]1)Nc1ccccc1
> 10000	335	156	> 10000	> 10000	44	–	–	–	–	–	O=c1cc(N2CCOCC2)nc(Cc2nc3c(-c4cccnc4)cccc3o2)[nH]1
> 10000	995	158	> 10000	> 10000	47	–	–	–	–	–	O=c1cc(N2CCOCC2)nc(Cc2nc3c(-c4ccncc4)cccc3o2)[nH]1
5500	180	10	> 10000	> 10000	65	51	78	0.1	> 40000	3 (≈ 1.16 µg/mL)	O=c1cc(N2CCOCC2)nc(Cc2nc3c(-c4ccccc4)cccc3[nH]2)[nH]1
5460	442	91	> 10000	> 10000	85	27	75	–	> 40000	3 (≈ 1.17 µg/mL)	O=c1cc(N2CCOCC2)nc(Cc2nc3cc(Br)ccc3[nH]2)[nH]1
> 10000	2750	461	3330	> 10000	75	–	–	–	–	–	Cc1cccc2oc(Cc3nc(N4CCOCC4)cc(=O)[nH]3)nc12
> 10000	–	1330	–	> 10000	–	–	–	–	–	–	Cn1c(Cc2nc3ccccc3o2)nc(N2CCOCC2)cc1=O
> 10000	36	29	> 10000	> 10000	9	99	99	2.2	> 40000	–	O=c1cc(N2CCOCC2)nc(Cc2nc3cc(F)ccc3n2C2CC2)[nH]1
5650	247	99	> 10000	> 10000	63	35	78	–	> 40000	3 (≈ 1.04 µg/mL)	O=c1cc(N2CCOCC2)nc(Cc2nc3ccc(Cl)cc3[nH]2)[nH]1
> 10000	6750	> 10000	> 10000	> 10000	–	–	–	–	–	–	Cn1c(Cc2nc(N3CCOCC3)cc(=O)[nH]2)nc2cc(-c3ccccc3)ccc21

IC50 [1] [nM]	IC50 [2] [nM]	IC50 [3] [nM]	IC50 [4] [nM]	IC50 [5] [nM]	IC50 [6] [nM]	metabolised [7] [%]	metabolised [8] [%]	Papp [9] [×10⁻⁶ cm/s]	IC50 (Cytochrome P450 3A4) [nM]	solubility thermodynamic at 16 h [10] [µM]	Structure (SMILES)
> 10000	2270	585	> 10000	> 10000	127	–	–	–	–	–	O=c1cc(N2CCOCC2)nc(Cc2nc3c(Br)cccc3o2)[nH]1
> 10000	5720	739	> 10000	> 10000	–	–	–	–	–	–	Cn1c(Cc2nc3cc(F)ccc3[nH]2)nc(N2CCOCC2)cc1=O
5720	84	111	> 10000	> 10000	105	–	–	–	–	–	O=c1cc(N2CCOCC2)nc(Cc2nc3ccccc3n2Cc2ccccc2)[nH]1
7150	2380	425	> 10000	> 10000	202	–	–	–	–	–	Cc1cccc2nc(Cc3nc(N4CCOCC4)cc(=O)[nH]3)oc12
> 10000	1060	290	> 10000	> 10000	289	–	–	–	–	–	Cn1c(Cc2nc(N3CCOCC3)cc(=O)[nH]2)nc2ccc(F)cc21
> 10000	397	193	> 10000	> 10000	475	–	–	–	–	–	COc1ccc2[nH]c(Cc3nc(N4CCOCC4)cc(=O)[nH]3)nc2c1
8400	21	90	> 10000	> 10000	142	96	97	1.5	> 40000	–	O=c1cc(N2CCOCC2)nc(Cc2nc3ccccc3n2C2CCCCC2)[nH]1
> 10000	270	205	> 10000	> 10000	109	–	–	–	–	–	COCCn1c(Cc2nc(N3CCOCC3)cc(=O)[nH]2)nc2cc(F)ccc21
> 10000	–	960	–	> 10000	233	–	–	–	–	–	Cc1ccc2oc(Cc3nc(N4CCOCC4)cc(=O)[nH]3)nc2c1
3330	2170	336	> 10000	> 10000	113	–	–	–	–	–	O=c1cc(N2CCOCC2)nc(Cc2nc3c(-c4ccccn4)cccc3o2)[nH]1
> 10000	166	32	> 10000	–	72	–	–	–	–	–	Cc1cc(F)ccc1Oc1cccc2c(=O)cc(N3CCOCC3)[nH]c12
> 10000	8450	567	> 10000	> 10000	125	–	–	–	–	–	O=c1cc(N2CCOCC2)nc(Cc2nc3c(F)cccc3o2)[nH]1
9880	2210	450	> 10000	> 10000	140	–	–	–	–	–	Cc1ccc2[nH]c(Cc3nc(N4CCOCC4)cc(=O)[nH]3)nc2c1
> 10000	9040	126	> 10000	> 10000	49	–	–	–	–	–	O=c1cc(N2CCOCC2)nc(Cc2nc3ccc(F)cc3o2)[nH]1
7750	373	19	> 10000	> 10000	13	26	40	31	–	3 (≈ 1.17 µg/mL)	O=c1cc(N2CCOCC2)nc(Cc2nc3c(-c4ccccc4)cccc3o2)[nH]1
